Results on 23 compounds are retold here after patent publication US20240391931A1 (Bristol-Myers Squibb Company, priority 2021, published 2024).

As usually defined, the pEC50 is −log10 of the EC50, conventionally taken in molar units.

Molecules are shown by their SMILES. pEC50: −log10 of the molar value.

In one assay the target is HER2YVMA (Homo sapiens, UniProt P04626, INS775YVMA). Description: HER2 signaling (pHER2) in Hek293-HER2YVMA cells. Type of assay: cell-based. Also noted: expressed in transfected cells; host or cells: HEK293 (pool), Ba/F3 (clones), BEAS2B (clones); lentiviral vector pCDH-CMV-MCS-EF1-Neo. The note with it: 1.5 hr compound, 1% FBS, read-out: HEKYVMA pHER2 EC50. Put shortly:
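Lentivirally transduced HER2YVMA lines (HEK293 pool; BEAS2B clone) treated 1.5 h at 37 °C in 1% FBS medium with compound at 0.0005–1.1 μM. Lysates read by MSD immunoassay for pHER2 (Tyr1248) normalized to total HER2, as % DMSO control; EC50 from variable-slope sigmoidal fit.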

Another assay concerns the target EGFR (Homo sapiens, UniProt P00533). Put plainly: EGFR signaling (pEGFR Tyr1068/total EGFR MSD) in A431 cells. In kind it is cell-based. Also noted: endogenous in cells; host or cells: A431, N87. The following applies: for pEC50: A431 cells, read-out: A431 pEGFR EC50; for Selectivity A431 EC50/BT474 EC50: ratio A431 pEGFR EC50 to BT474 pHER2 EC50; for Selectivity A431 EC50/HEKYVMA EC50: ratio A431 pEGFR EC50 to HEK YVMA pHER2 EC50. Put shortly: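 EC50 was fitted with variable Hill slope from MSD pTyr1068/total EGFR ratios, expressed as % DMSO control. A431 cells were starved overnight, then exposed 1.5 h to eight concentrations from 10 to 0.005 μM in 1% FBS before a 10-min 100 ng/mL EGF pulse.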

Chain of EGFR (P00533 25-1210): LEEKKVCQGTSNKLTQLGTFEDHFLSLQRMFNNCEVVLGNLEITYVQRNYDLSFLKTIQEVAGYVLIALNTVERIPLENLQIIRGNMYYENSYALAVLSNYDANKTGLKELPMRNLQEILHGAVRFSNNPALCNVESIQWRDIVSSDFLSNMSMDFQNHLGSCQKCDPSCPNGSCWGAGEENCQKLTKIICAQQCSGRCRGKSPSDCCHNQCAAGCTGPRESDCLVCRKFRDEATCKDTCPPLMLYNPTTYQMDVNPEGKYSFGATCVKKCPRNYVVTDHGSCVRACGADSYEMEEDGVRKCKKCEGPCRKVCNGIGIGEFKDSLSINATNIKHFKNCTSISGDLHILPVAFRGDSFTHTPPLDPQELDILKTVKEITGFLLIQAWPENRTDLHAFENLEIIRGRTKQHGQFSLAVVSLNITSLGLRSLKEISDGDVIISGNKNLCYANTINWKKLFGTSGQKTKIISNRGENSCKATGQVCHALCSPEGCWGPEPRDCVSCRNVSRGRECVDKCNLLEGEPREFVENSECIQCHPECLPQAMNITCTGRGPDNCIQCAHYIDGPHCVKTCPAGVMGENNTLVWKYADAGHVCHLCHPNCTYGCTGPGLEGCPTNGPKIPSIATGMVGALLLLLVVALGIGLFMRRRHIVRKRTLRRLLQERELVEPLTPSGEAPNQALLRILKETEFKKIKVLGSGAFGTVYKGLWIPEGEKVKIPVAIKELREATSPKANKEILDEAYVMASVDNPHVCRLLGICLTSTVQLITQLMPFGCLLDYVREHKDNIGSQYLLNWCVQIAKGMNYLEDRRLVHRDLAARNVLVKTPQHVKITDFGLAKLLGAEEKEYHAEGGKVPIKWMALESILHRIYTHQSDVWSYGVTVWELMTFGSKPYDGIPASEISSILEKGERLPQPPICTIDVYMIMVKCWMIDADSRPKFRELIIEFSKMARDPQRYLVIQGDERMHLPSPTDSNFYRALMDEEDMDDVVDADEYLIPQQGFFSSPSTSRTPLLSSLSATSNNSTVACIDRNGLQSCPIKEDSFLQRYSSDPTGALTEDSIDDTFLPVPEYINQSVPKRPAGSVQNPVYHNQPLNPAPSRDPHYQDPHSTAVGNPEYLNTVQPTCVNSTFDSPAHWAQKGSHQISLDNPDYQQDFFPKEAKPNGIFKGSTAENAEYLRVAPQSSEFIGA
Chain of HER2YVMA (P04626 with tags, fused parts or gaps INS775YVMA): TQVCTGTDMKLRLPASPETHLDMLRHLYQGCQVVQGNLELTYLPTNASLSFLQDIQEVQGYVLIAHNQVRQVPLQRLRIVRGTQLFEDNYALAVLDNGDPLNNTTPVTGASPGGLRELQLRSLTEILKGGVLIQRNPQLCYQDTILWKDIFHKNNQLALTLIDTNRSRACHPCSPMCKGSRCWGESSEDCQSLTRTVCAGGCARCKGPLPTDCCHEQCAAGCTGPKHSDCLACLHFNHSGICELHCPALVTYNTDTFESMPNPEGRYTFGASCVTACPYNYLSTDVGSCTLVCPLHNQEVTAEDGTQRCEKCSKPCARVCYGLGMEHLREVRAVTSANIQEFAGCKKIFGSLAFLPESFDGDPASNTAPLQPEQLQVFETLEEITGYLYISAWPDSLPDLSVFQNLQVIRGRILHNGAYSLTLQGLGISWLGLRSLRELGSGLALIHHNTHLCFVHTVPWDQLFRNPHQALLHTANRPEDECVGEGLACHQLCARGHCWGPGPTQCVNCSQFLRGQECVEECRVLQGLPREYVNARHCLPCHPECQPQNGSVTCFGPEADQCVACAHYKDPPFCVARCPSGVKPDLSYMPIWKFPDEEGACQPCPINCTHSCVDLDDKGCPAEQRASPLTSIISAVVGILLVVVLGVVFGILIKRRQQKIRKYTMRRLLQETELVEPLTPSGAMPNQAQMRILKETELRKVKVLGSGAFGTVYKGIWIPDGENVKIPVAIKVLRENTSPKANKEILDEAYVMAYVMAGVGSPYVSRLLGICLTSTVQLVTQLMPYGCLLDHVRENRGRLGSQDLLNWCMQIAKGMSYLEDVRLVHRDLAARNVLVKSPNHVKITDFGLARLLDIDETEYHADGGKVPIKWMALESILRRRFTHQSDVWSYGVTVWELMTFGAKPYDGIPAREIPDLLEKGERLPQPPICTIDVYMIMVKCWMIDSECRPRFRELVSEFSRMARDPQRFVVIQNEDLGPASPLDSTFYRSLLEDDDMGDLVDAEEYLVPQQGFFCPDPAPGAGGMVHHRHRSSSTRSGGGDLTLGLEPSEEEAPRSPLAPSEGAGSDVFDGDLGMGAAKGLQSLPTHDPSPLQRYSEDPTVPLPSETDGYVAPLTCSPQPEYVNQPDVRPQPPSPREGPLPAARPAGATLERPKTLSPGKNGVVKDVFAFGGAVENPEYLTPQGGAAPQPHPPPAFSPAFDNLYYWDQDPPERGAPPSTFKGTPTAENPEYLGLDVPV

As for `Cc1ccc(Oc2ccc(Nc3ncnc4sc5c(c34)CCN(C(=O)/C=C/CNC34CCC(C#N)(CC3)CC4)C5)cc2C)cn1` [Compound 72], the pEC50 on HER2YVMA was over 7.00. Besides, on EGFR, the pEC50 is over 7.00; the “Selectivity A431 EC50/BT474 EC50” value is “D (D: ≥ 5 and < 10)”; the “Selectivity A431 EC50/HEKYVMA EC50” value is “E (E: >1 and < 5)”.

`Cc1ccc(Oc2ccc(Nc3ncnc4sc5c(c34)CCN(C(=O)/C=C/CN3CCC(O)C3)C5)cc2C)cn1` (centres unmarked) [Compound 74]: at HER2YVMA, the pEC50 is over 7.00. For the same compound, at EGFR, the pEC50 is 6.00 to 7.00; the “Selectivity A431 EC50/BT474 EC50” value is “D (D: ≥ 5 and < 10)”; the “Selectivity A431 EC50/HEKYVMA EC50” value is “D (D: ≥ 5 and < 10)”.

Take `Cc1ccc(Oc2ccc(Nc3ncnc4sc5c(c34)C(C)CN(C(=O)C=CCN(C)C)C5)cc2C)cn1` (single isomer, unassigned) [Compound 105]: the pEC50 on HER2YVMA was over 7.00. For the same compound, on EGFR, the pEC50 was 6.00 to 7.00; the “Selectivity A431 EC50/BT474 EC50” value was “C (C: ≥ 10 and < 20)”; the “Selectivity A431 EC50/HEKYVMA EC50” value was “D (D: ≥ 5 and < 10)”.

On to `Cc1ccc(Oc2ccc(Nc3ncnc4sc5c(c34)CCN(C(=O)/C=C/CNCCO)C5)cc2C)cn1` [Compound 65], for which the pEC50 on HER2YVMA was over 7.00. For the same compound, on EGFR, the negative logarithm of the EC50 (pEC50) was 6.00 to 7.00; the “Selectivity A431 EC50/BT474 EC50” value is “D (D: ≥ 5 and < 10)”; the “Selectivity A431 EC50/HEKYVMA EC50” value is “E (E: >1 and < 5)”.

Take `O=C(/C=C/CN1CC2CCC(C2)C1)N1CCc2c(sc3ncnc(Nc4ccc(Oc5ccc6ncnn6c5)c(Cl)c4)c23)C1` [Compound 88]: on HER2YVMA, the pEC50 is over 7.00. Also, on EGFR, the pEC50 is over 7.00; the “Selectivity A431 EC50/BT474 EC50” value is “C (C: ≥ 10 and < 20)”; the “Selectivity A431 EC50/HEKYVMA EC50” value is “C (C: ≥ 10 and < 20)”.

For `Cc1cc(Nc2ncnc3sc4c(c23)CCN(C(=O)/C=C/CN2CC3C(CO)C3C2)C4)ccc1Oc1ccc2ncnn2c1` (centres unmarked) [Compound 81], the pEC50 on HER2YVMA was over 7.00. Further, at EGFR, the pEC50 was 6.00 to 7.00; the “Selectivity A431 EC50/BT474 EC50” value is “B (B: ≥ 20 and < 100)”; the “Selectivity A431 EC50/HEKYVMA EC50” value is “C (C: ≥ 10 and < 20)”.

On to `Cc1ccc(Oc2ccc(Nc3ncnc4sc5c(c34)CCN(C(=O)/C=C/CNC3COC3)C5)cc2C)cn1` [Compound 38], for which the negative logarithm of the EC50 (pEC50) at HER2YVMA was over 7.00. In addition, at EGFR, the pEC50 is 6.00 to 7.00; the “Selectivity A431 EC50/BT474 EC50” value is “C (C: ≥ 10 and < 20)”; the “Selectivity A431 EC50/HEKYVMA EC50” value was “D (D: ≥ 5 and < 10)”.

Consider `Cc1ccc(Oc2ccc(Nc3ncnc4sc5c(c34)CCN(C(=O)/C=C/CN3C4CCC3CC4)C5)cc2C)cn1` [Compound 44], for which, on HER2YVMA, the pEC50 is over 7.00. Besides, at EGFR, the pEC50 is 6.00 to 7.00; the “Selectivity A431 EC50/BT474 EC50” value is “D (D: ≥ 5 and < 10)”; the “Selectivity A431 EC50/HEKYVMA EC50” value is “E (E: >1 and < 5)”.

As for `Cc1ccc(Oc2ccc(Nc3ncnc4sc5c(c34)CCN(C(=O)/C=C/CNCCS(C)(=O)=O)C5)cc2C)cn1` [Compound 45], at HER2YVMA, the pEC50 is over 7.00. Also, on EGFR, the pEC50 was 6.00 to 7.00; the “Selectivity A431 EC50/BT474 EC50” value was “C (C: ≥ 10 and < 20)”; the “Selectivity A431 EC50/HEKYVMA EC50” value was “D (D: ≥ 5 and < 10)”.

Consider `O=C(/C=C/CN1CC2CC(C2)C1)N1CCc2c(sc3ncnc(Nc4ccc(Oc5ccc6ncnn6c5)c(Cl)c4)c23)C1` [Compound 85], for which the pEC50 on HER2YVMA is over 7.00. On EGFR, the pEC50 was 6.00 to 7.00; the “Selectivity A431 EC50/BT474 EC50” value was “C (C: ≥ 10 and < 20)”; the “Selectivity A431 EC50/HEKYVMA EC50” value is “C (C: ≥ 10 and < 20)”.

On to `Cc1cc(Nc2ncnc3sc4c(c23)CCN(C(=O)/C=C/CN2CC3CC(C3)C2)C4)ccc1Oc1ccc2ncnn2c1` [Compound 82], for which the pEC50 at HER2YVMA is over 7.00. At EGFR, the pEC50 was 6.00 to 7.00; the “Selectivity A431 EC50/BT474 EC50” value was “C (C: ≥ 10 and < 20)”; the “Selectivity A431 EC50/HEKYVMA EC50” value is “C (C: ≥ 10 and < 20)”.

For `Cc1ccc(Oc2ccc(Nc3ncnc4sc5c(c34)C(C)CN(C(=O)/C=C/CN(C)C)C5)cc2C)cn1` (centres unmarked) [Compound 98, (E)-4-(dimethylamino)-1-(5-methyl-4-((3-methyl-4-((6-methylpyridin-3-yl)oxy)phenyl)amino)-5,8-dihydropyrido[4′,3′:4,5]thieno[2,3-d]pyrimidin-7(6H)-yl)but-2-en-1-one], on HER2YVMA, the pEC50 was over 7.00. For the same compound, at EGFR, the pEC50 was 6.00 to 7.00; the “Selectivity A431 EC50/BT474 EC50” value was “C (C: ≥ 10 and < 20)”; the “Selectivity A431 EC50/HEKYVMA EC50” value was “D (D: ≥ 5 and < 10)”.

As to `Cc1cc(Nc2ncnc3sc4c(c23)CCN(C(=O)/C=C/CN(C)C)C4)ccc1Oc1ccc2nonc2c1` [Compound 104, (E)-1-(4-((4-(Benzo[c][1,2,5]oxadiazol-5-yloxy)-3-methylphenyl)amino)-5,6-dihydropyrido[4′,3′:4,5]thieno[2,3-d]pyrimidin-7(8H)-yl)-4-(dimethylamino)but-2-en-1-one], the pEC50 at HER2YVMA is over 7.00. Also, on EGFR, the pEC50 is over 7.00; the “Selectivity A431 EC50/BT474 EC50” value was “D (D: ≥ 5 and < 10)”; the “Selectivity A431 EC50/HEKYVMA EC50” value was “D (D: ≥ 5 and < 10)”.

For the compound `Cc1ccc(Oc2ccc(Nc3ncnc4sc5c(c34)CCN(C(=O)/C=C/CN3CCCC3C(N)=O)C5)cc2C)cn1` (centres unmarked) [Compound 41], on HER2YVMA, the pEC50 was over 7.00. Besides, at EGFR, the pEC50 is over 7.00; the “Selectivity A431 EC50/BT474 EC50” value was “B (B: ≥ 20 and < 100)”; the “Selectivity A431 EC50/HEKYVMA EC50” value was “C (C: ≥ 10 and < 20)”.

In the case of `C=CC(=O)N1CCc2[nH]c3ncnc(Nc4ccc(Oc5ccc(C)nc5)c(C)c4)c3c2C1` [Compound 94, 1-(4-((3-methyl-4-((6-methylpyridin-3-yl)oxy)phenyl)amino)-7,8-dihydro-5H-pyrido[3′,4′:4,5]pyrrolo[2,3-d]pyrimidin-6(9H)-yl)prop-2-en-1-one], the pEC50 at HER2YVMA was over 7.00. In addition, on EGFR, the pEC50 is 6.00 to 7.00; the “Selectivity A431 EC50/BT474 EC50” value was “C (C: ≥ 10 and < 20)”; the “Selectivity A431 EC50/HEKYVMA EC50” value was “E (E: >1 and < 5)”.

For the compound `Cc1ccc(Oc2ccc(Nc3ncnc4sc5c(c34)CCN(C(=O)/C=C/CN3CCC4(CCOC4)C3)C5)cc2C)cn1` (centres unmarked) [Compound 67], the pEC50 at HER2YVMA is over 7.00. Also, at EGFR, the pEC50 is over 7.00; the “Selectivity A431 EC50/BT474 EC50” value was “D (D: ≥ 5 and < 10)”; the “Selectivity A431 EC50/HEKYVMA EC50” value is “D (D: ≥ 5 and < 10)”.

`CC(=O)N1CCN(C/C=C/C(=O)N2CCc3c(sc4ncnc(Nc5ccc(Oc6ccc(C)nc6)c(C)c5)c34)C2)CC1` [Compound 51]: at HER2YVMA, the pEC50 is 6.46 to 7.00. At EGFR, the negative-log EC50 (pEC50) is 5.00 to 6.00; the “Selectivity A431 EC50/BT474 EC50” value is “C (C: ≥ 10 and < 20)”; the “Selectivity A431 EC50/HEKYVMA EC50” value was “E (E: >1 and < 5)”.

As for `Cc1cc(Nc2ncnc3sc4c(c23)CCN(C(=O)/C=C/CN(C)C)C4)ccc1Oc1ccc2cn[nH]c2c1` [Compound 23, (E)-1-(4-((4-((1H-indazol-6-yl)oxy)-3-methylphenyl)amino)-5,8-dihydropyrido[4′,3′:4,5]thieno[2,3-d]pyrimidin-7(6H)-yl)-4-(dimethylamino)but-2-en-1-one], on HER2YVMA, the pEC50 is over 7.00. Moreover, at EGFR, the pEC50 is over 7.00; the “Selectivity A431 EC50/BT474 EC50” value was “D (D: ≥ 5 and < 10)”; the “Selectivity A431 EC50/HEKYVMA EC50” value is “E (E: >1 and < 5)”.

In the case of `Cc1ccc(Oc2ccc(Nc3ncnc4sc5c(c34)CCN(C(=O)/C=C/CNC3CC3)C5)cc2C)cn1` [Compound 40], the pEC50 on HER2YVMA is over 7.00. Further, on EGFR, the pEC50 was over 7.00; the “Selectivity A431 EC50/BT474 EC50” value was “B (B: ≥ 20 and < 100)”; the “Selectivity A431 EC50/HEKYVMA EC50” value was “B (B: ≥ 20 and < 100)”.

`Cc1ccc(Oc2ccc(Nc3ncnc4sc5c(c34)CCN(C(=O)/C=C/CNCc3cc(C)n[nH]3)C5)cc2C)cn1` [Compound 49]: the pEC50 at HER2YVMA is over 7.00. At EGFR, the pEC50 is 6.00 to 7.00; the “Selectivity A431 EC50/BT474 EC50” value was “B (B: ≥ 20 and < 100)”; the “Selectivity A431 EC50/HEKYVMA EC50” value is “D (D: ≥ 5 and < 10)”.

Regarding `Cc1ccc(Oc2ccc(Nc3ncnc4sc5c(c34)CCN(C(=O)/C=C/CNCC3CN(C)CCO3)C5)cc2C)cn1` (centres unmarked) [Compound 48], the pEC50 at HER2YVMA is over 7.00. On EGFR, the pEC50 was 6.00 to 7.00; the “Selectivity A431 EC50/BT474 EC50” value is “B (B: ≥ 20 and < 100)”; the “Selectivity A431 EC50/HEKYVMA EC50” value was “B (B: ≥ 20 and < 100)”.

With `O=C(/C=C/CN1CC2CC1CO2)N1CCc2c(sc3ncnc(Nc4ccc(Oc5ccc6ncnn6c5)c(Cl)c4)c23)C1` (centres unmarked) [Compound 87], on HER2YVMA, the pEC50 was over 7.00. Also, at EGFR, the pEC50 was over 7.00; the “Selectivity A431 EC50/BT474 EC50” value was “B (B: ≥ 20 and < 100)”; the “Selectivity A431 EC50/HEKYVMA EC50” value was “D (D: ≥ 5 and < 10)”.

Regarding `Cc1ccc(Oc2ccc(Nc3ncnc4sc5c(c34)CCN(C(=O)/C=C/CN[C@H]3CCC[C@H](O)C3)C5)cc2C)cn1` [Compound 73], the pEC50 at HER2YVMA is over 7.00. Further, on EGFR, the negative-log EC50 (pEC50) is 6.00 to 7.00; the “Selectivity A431 EC50/BT474 EC50” value is “D (D: ≥ 5 and < 10)”; the “Selectivity A431 EC50/HEKYVMA EC50” value was “E (E: >1 and < 5)”.
